target: T1, hITK enzyme (FLAG-tagged full-length hITK) (Homo sapiens, UniProt Q08881); assay: ITK inhibitory activity (HTRF kinase assay, biotinylated GST-SLP76 substrate); format: biochemical; details: IC50 calculated from the 2 test compound concentrations sandwiching 50% ITK inhibitory rate
T1 construct: strongly expressing FLAG-tagged full-length hITK in Sf9 cells; FLAG; made in house; host or cells: Sf9 insect cells (ITK); Escherichia coli (GST-SLP76 substrate)
T1 sequence (Q08881 1-620): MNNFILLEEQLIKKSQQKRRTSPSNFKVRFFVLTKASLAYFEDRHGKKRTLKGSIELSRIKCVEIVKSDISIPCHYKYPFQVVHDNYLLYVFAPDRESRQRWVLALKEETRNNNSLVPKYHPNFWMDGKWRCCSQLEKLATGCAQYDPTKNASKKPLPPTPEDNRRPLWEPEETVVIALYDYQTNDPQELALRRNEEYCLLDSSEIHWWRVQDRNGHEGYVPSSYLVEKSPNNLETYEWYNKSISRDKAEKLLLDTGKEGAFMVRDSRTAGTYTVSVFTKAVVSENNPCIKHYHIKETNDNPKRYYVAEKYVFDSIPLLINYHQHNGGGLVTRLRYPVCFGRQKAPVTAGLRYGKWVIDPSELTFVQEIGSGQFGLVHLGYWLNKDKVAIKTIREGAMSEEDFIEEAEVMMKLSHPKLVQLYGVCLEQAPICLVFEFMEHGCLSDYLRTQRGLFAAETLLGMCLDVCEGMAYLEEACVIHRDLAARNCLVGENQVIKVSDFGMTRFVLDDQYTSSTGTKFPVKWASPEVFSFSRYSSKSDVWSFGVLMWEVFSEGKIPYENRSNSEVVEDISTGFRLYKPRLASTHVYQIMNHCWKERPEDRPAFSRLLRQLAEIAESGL
Description: (1) Preparation of hITK Enzyme
hITK enzyme was prepared by strongly expressing FLAG-tagged full-length hITK in Sf9 cells, and purifying same by anti-FLAG antibody column.
(2) Preparation of biotinylated GST-SLP76
Biotinylated GST-SLP76 was prepared by strongly expressing GST-tagged SLP76 (aa95-175) in Escherichia coli, purifying same by glutathion sepharose column and biotinylating same.
(3) Preparation of Solution
(i) buffer for dilution: 20 mmol/L 3-(N-morpholino)propanesulfonic acid (pH 7.0) (DOJINDO LABORATORIES), 10 mmol/L magnesium chloride (Sigma-Aldrich Corporation), 1 mmol/L dithiothreitol (Nacalai Tesque, Inc.), 0.1% gelatin (Sigma-Aldrich Corporation)
(ii) substrate solution: 0.2 μg/mL biotinylated GST-SLP76, 100 μmol/L ATP (Sigma-Aldrich Corporation), prepared with buffer for dilution
(iii) test compound solution: test compound, 50% dimethyl sulfoxide (DMSO), prepared with buffer for dilution
(iv) enzyme solution: 50 ng/mL hITK enzyme, prepared with buffer for dilution
(v) control solution: solution after removal of test compound from the mixture of the above-mentioned (i), (ii) and (iii)
(vi) blank solution: solution after removal of ATP from the mixture of the above-mentioned (i), (ii) and (iii)
(vii) detection buffer: 0.1 μg/mL Anti-Phosphotyrosine (PT66)-Cryptate (Cisbio), 2.5 μg/mL streptavidin-binding XL665 (Cisbio), 50 mmol/L 4-(2-hydroxyethyl)-1-piperazineethanesulfonic acid (pH 7.4) (Nacalai Tesque, Inc.), 30 mmol/L EDTA (NipponGene), 0.1% TritonX (Sigma-Aldrich Corporation), 200 mmol/L potassium fluoride (Wako Pure Chemical Industries, Ltd.), 0.05% bovine serum albumin (Sigma-Aldrich Corporation) (4) Measurement of ITK Inhibitory Activity
A substrate solution (25 μL/well), a test compound solution (5 μL/well) and an enzyme solution (20 μL/well) were added into 96 well half-area white plate (plate, Corning Incorporated 3642) to start a kinase reaction. The plate was stood still at room temperature for 10 min. Then, a detection buffer (50 μL/well) was added to the plate. After 2 hr from the addition of the detection buffer, fluorescence intensity at 620 nm (excited at 337 nm), and fluorescence intensity at 665 nm ([…]) were measured by a fluorescence microplate reader.
The Ratio (fluorescence intensity at 665 nm/fluorescence intensity at 620 nm×10000) of each test compound was calculated from the measured fluorescence intensity. Simultaneously, the measurement was performed using a blank solution and a control solution, and % of control value of each test compound was calculated from the following formula. % of control=(Ratio of test compound−Ratio of blank)/(Ratio of control−Ratio of blank)×100 ITK inhibitory rate (%)=100−(% of control)
The IC50 value was calculated from the test compound concentrations at 2 points sandwiching 50% ITK inhibitory rate.
In the test for the compounds of Examples 380 and 381, the ATP concentration of the substrate solutions was 6 μmol/L.

`CC(O)C(=O)N(C)c1ccc2cc(-c3n[nH]c4c3CCC(C)(C)C4)[nH]c2c1` (centres unmarked) [Example 46] and `CC(C)C(O)C(=O)N(C)c1ccc2cc(-c3n[nH]c4c3CCC(C)(C)C4)[nH]c2c1` (centres unmarked) [Example 67] are within 1.5-fold of each other in IC50: 5 nM for the first, 4 nM for the second.

Compared with `COCC(OC)C(=O)N(C)c1ccc2cc(-c3n[nH]c4c3CCC(C)(C)C4)[nH]c2c1` (centres unmarked) [Example 47], `CCC(OC)C(=O)N(C)c1ccc2cc(-c3n[nH]c4c3CCC(C)(C)C4)[nH]c2c1` (centres unmarked) [Example 50] is 2-fold lower in IC50: 8 nM for the first, 4 nM for the second. The second is the more potent here.

`COC(CO)C(=O)N(C)c1ccc2cc(-c3n[nH]c4c3CCC(C)(C)C4)[nH]c2c1` (centres unmarked) [Example 48] and `CC(CO)C(=O)N(C)c1ccc2cc(-c3n[nH]c4c3CCC(C)(C)C4)[nH]c2c1` (centres unmarked) [Example 61] are the same in IC50: 6 nM for the first, 6 nM for the second.

Compared with `CCC(O)C(=O)N(C)c1ccc2cc(-c3n[nH]c4c3CCC(C)(C)C4)[nH]c2c1` (centres unmarked) [Example 49], `COCC(O)C(=O)N(C)c1ccc2cc(-c3n[nH]c4c3CCC(C)(C)C4)[nH]c2c1` (centres unmarked) [Example 53] is 2.7-fold higher in IC50: 3 nM for the first, 8 nM for the second. The first is the more potent here.

First: CN(C(=O)NCc1ccccc1)c1ccc2cc(-c3n[nH]c4c3CCC(C)(C)C4)[nH]c2c1 [Example 51]
Second: CN(C(=O)C(=O)c1ccccc1)c1ccc2cc(-c3n[nH]c4c3CCC(C)(C)C4)[nH]c2c1 [Example 57]
The IC50 of the first is 1.5-fold higher: 26 nM for the first, 17 nM for the second.

`CN(C(=O)C1CCCO1)c1ccc2cc(-c3n[nH]c4c3CCC(C)(C)C4)[nH]c2c1` (centres unmarked) [Example 52] and `CN(C(=O)CC1CCCO1)c1ccc2cc(-c3n[nH]c4c3CCC(C)(C)C4)[nH]c2c1` (centres unmarked) [Example 71] cannot be ordered by IC50: < 3 nM for the first, < 3 nM for the second.

Compared with `CN(C(N)=O)c1ccc2cc(-c3n[nH]c4c3CCC(C)(C)C4)[nH]c2c1` [Example 54], `CCC(=O)N(C)c1ccc2cc(-c3n[nH]c4c3CCC(C)(C)C4)[nH]c2c1` [Example 70] is 6-fold lower in IC50: 18 nM for the first, 3 nM for the second. The second is the more potent here.

Going from `CCCOCC(=O)N(C)c1ccc2cc(-c3n[nH]c4c3CCC(C)(C)C4)[nH]c2c1` [Example 55] to `COCCC(=O)N(C)c1ccc2cc(-c3n[nH]c4c3CCC(C)(C)C4)[nH]c2c1` [Example 62], the IC50 rises from < 3 nM to 4 nM. The first is the more potent here.

Compared with `CC(C)OCC(=O)N(C)c1ccc2cc(-c3n[nH]c4c3CCC(C)(C)C4)[nH]c2c1` [Example 56], `COCC(C)C(=O)N(C)c1ccc2cc(-c3n[nH]c4c3CCC(C)(C)C4)[nH]c2c1` (centres unmarked) [Example 58] is higher in IC50: < 3 nM for the first, 6 nM for the second.

Compared with `Cc1cc(C(=O)N(C)c2ccc3cc(-c4n[nH]c5c4CCC(C)(C)C5)[nH]c3c2)no1` [Example 59], `CN(C(=O)CC(C)(C)O)c1ccc2cc(-c3n[nH]c4c3CCC(C)(C)C4)[nH]c2c1` [Example 69] is 1.8-fold lower in IC50: 7 nM for the first, 4 nM for the second.

Compared with `CN(C(=O)C1CCOCC1)c1ccc2cc(-c3n[nH]c4c3CCC(C)(C)C4)[nH]c2c1` [Example 60], `CN(C(=O)C1CCOC1)c1ccc2cc(-c3n[nH]c4c3CCC(C)(C)C4)[nH]c2c1` (centres unmarked) [Example 66] is 1.7-fold lower in IC50: 5 nM for the first, 3 nM for the second. The second is the more potent here.

Going from `CN(C(=O)CCO)c1ccc2cc(-c3n[nH]c4c3CCC(C)(C)C4)[nH]c2c1` [Example 63] to `CN(C(=O)C(C)(C)CO)c1ccc2cc(-c3n[nH]c4c3CCC(C)(C)C4)[nH]c2c1` [Example 76], the IC50 falls from 6 nM to 4 nM (1.5-fold). The second is the more potent here.

First: CC(=O)N1CCC(C(=O)N(C)c2ccc3cc(-c4n[nH]c5c4CCC(C)(C)C5)[nH]c3c2)CC1 [Example 64]
Second: CN1CCC(C(=O)N(C)c2ccc3cc(-c4n[nH]c5c4CCC(C)(C)C5)[nH]c3c2)CC1 [Example 65]
The IC50 of the first is 9.2-fold lower: 6 nM for the first, 55 nM for the second.

Compared with `CN(C(=O)C(O)c1ccccc1)c1ccc2cc(-c3n[nH]c4c3CCC(C)(C)C4)[nH]c2c1` (centres unmarked) [Example 68], `CN(C(=O)C(C)(C)COCc1ccccc1)c1ccc2cc(-c3n[nH]c4c3CCC(C)(C)C4)[nH]c2c1` [Example 75] is 4.9-fold higher in IC50: 7 nM for the first, 34 nM for the second.

`CN(C(=O)CC1CCCCC1)c1ccc2cc(-c3n[nH]c4c3CCC(C)(C)C4)[nH]c2c1` [Example 72] and `CN(C(=O)CC1CCCC1)c1ccc2cc(-c3n[nH]c4c3CCC(C)(C)C4)[nH]c2c1` [Example 92] are within 1.5-fold of each other in IC50: 9 nM for the first, 10 nM for the second.

`CN(C(=O)COc1ccncc1)c1ccc2cc(-c3n[nH]c4c3CCC(C)(C)C4)[nH]c2c1` [Example 73] and `CN(C(=O)COc1cccnc1)c1ccc2cc(-c3n[nH]c4c3CCC(C)(C)C4)[nH]c2c1` [Example 86] cannot be ordered by IC50: < 3 nM for the first, < 3 nM for the second.

Compared with `COC1CCC(C(=O)N(C)c2ccc3cc(-c4n[nH]c5c4CCC(C)(C)C5)[nH]c3c2)CC1` (centres unmarked) [Example 74], `CO[C@H]1CC[C@H](C(=O)N(C)c2ccc3cc(-c4n[nH]c5c4CCC(C)(C)C5)[nH]c3c2)CC1` [Example 82] is 1.8-fold higher in IC50: 4 nM for the first, 7 nM for the second.

`CN(C(=O)[C@H](O)C1CCCCC1)c1ccc2cc(-c3n[nH]c4c3CCC(C)(C)C4)[nH]c2c1` [Example 77] and `CN(C(=O)[C@@H](O)C1CCCCC1)c1ccc2cc(-c3n[nH]c4c3CCC(C)(C)C4)[nH]c2c1` [Example 78] are within 1.5-fold of each other in IC50: 6 nM for the first, 7 nM for the second.

First: CN(C(=O)CN1CCCCC1)c1ccc2cc(-c3n[nH]c4c3CCC(C)(C)C4)[nH]c2c1 [Example 79]
Second: CN(C(=O)CN1CCOCC1)c1ccc2cc(-c3n[nH]c4c3CCC(C)(C)C4)[nH]c2c1 [Example 80]
The IC50 of the first is 4.3-fold higher: 13 nM for the first, 3 nM for the second. The second is the more potent here.

Compared with `COC1CCN(CC(=O)N(C)c2ccc3cc(-c4n[nH]c5c4CCC(C)(C)C5)[nH]c3c2)CC1` [Example 81], `CO[C@H]1CC[C@@H](C(=O)N(C)c2ccc3cc(-c4n[nH]c5c4CCC(C)(C)C5)[nH]c3c2)CC1` [Example 85] is 2-fold lower in IC50: 8 nM for the first, 4 nM for the second.

First: CN(C(=O)CN1CCCC1=O)c1ccc2cc(-c3n[nH]c4c3CCC(C)(C)C4)[nH]c2c1 [Example 83]
Second: CN(C(=O)CC1CCOCC1)c1ccc2cc(-c3n[nH]c4c3CCC(C)(C)C4)[nH]c2c1 [Example 94]
The IC50 of the first is lower: < 3 nM for the first, 4 nM for the second. The first is the more potent here.

First: CN(c1ccc2cc(-c3n[nH]c4c3CCC(C)(C)C4)[nH]c2c1)C(=O)[C@H]1CC[C@@H](O)CC1 [Example 84]
Second: COC1CCCC(C(=O)N(C)c2ccc3cc(-c4n[nH]c5c4CCC(C)(C)C5)[nH]c3c2)C1 (centres unmarked) [Example 99]
The IC50 of the first is lower: < 3 nM for the first, 26 nM for the second. The first is the more potent here.

Compared with `CN(C(=O)COC1CCOC1)c1ccc2cc(-c3n[nH]c4c3CCC(C)(C)C4)[nH]c2c1` (centres unmarked) [Example 87], `CN(C(=O)COC1CCOCC1)c1ccc2cc(-c3n[nH]c4c3CCC(C)(C)C4)[nH]c2c1` [Example 88] is higher in IC50: < 3 nM for the first, 3 nM for the second. The first is the more potent here.

Going from `CN(C(=O)Cn1ccnc1)c1ccc2cc(-c3n[nH]c4c3CCC(C)(C)C4)[nH]c2c1` [Example 89] to `CN(C(=O)CCC1CCCCC1)c1ccc2cc(-c3n[nH]c4c3CCC(C)(C)C4)[nH]c2c1` [Example 93], the IC50 rises from < 3 nM to 48 nM. The first is the more potent here.

`CN(C(=O)C(O)C1CCOCC1)c1ccc2cc(-c3n[nH]c4c3CCC(C)(C)C4)[nH]c2c1` (centres unmarked) [Example 95] and `CC(C(=O)N(C)c1ccc2cc(-c3n[nH]c4c3CCC(C)(C)C4)[nH]c2c1)C1CCOCC1` (centres unmarked) [Example 98] are the same in IC50: 3 nM for the first, 3 nM for the second.

First: CN(C(=O)C(O)C1CCCOC1)c1ccc2cc(-c3n[nH]c4c3CCC(C)(C)C4)[nH]c2c1 (centres unmarked) [Example 96]
Second: CC(C(=O)N(C)c1ccc2cc(-c3n[nH]c4c3CCC(C)(C)C4)[nH]c2c1)C1CCCCC1 (centres unmarked) [Example 97]
The IC50 of the first is 6.7-fold lower: 3 nM for the first, 20 nM for the second.

`COC1CCCC(C(=O)N(C)c2ccc3cc(-c4n[nH]c5c4CCC(C)(C)C5)[nH]c3c2)C1` (centres unmarked) [Example 100] showed an IC50 of 5 nM.
